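Where inhibition never reached the appropriate level, the endpoint shown equals the highest concentration tested. Otherwise, values were interpolated linearly from a five-concentration, 48-hour dose response in 96-well plates. Abbreviation: GI50, concentration required for 50% inhibition of growth. At the TGI there is no net growth.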
What was measured:
Test in all cases: NCI anticancer screen, dose series, 48 h
[1] = tested on: 786-0 renal
[2] = tested on: A498 renal
[3] = tested on: A549 NSCLC
[4] = tested on: ACHN renal
[5] = tested on: BT-549 breast
[6] = tested on: CAKI-1 renal
[7] = tested on: CCRF-CEM leukemia
[8] = tested on: COLO 205 colon
[9] = tested on: DU-145 prostate
[10] = tested on: EKVX NSCLC
[11] = tested on: HCC-2998 colon
[12] = tested on: HCT-116 colon
[13] = tested on: HCT-15 colon
[14] = tested on: HL-60(TB) leukemia
[15] = tested on: HOP-62 NSCLC
[16] = tested on: HOP-92 NSCLC
[17] = tested on: HS 578T breast
[18] = tested on: HT29 colon
[19] = tested on: IGROV1 ovarian
[20] = tested on: K-562 leukemia
[21] = tested on: KM12 colon
[22] = tested on: LOX IMVI melanoma
[23] = tested on: M14 melanoma
[24] = tested on: MALME-3M melanoma
[25] = tested on: MCF7 breast
[26] = tested on: MDA-MB-231 breast
[27] = tested on: MDA-MB-435
[28] = tested on: MOLT-4 leukemia
[29] = tested on: NCI-H226 lung
[30] = tested on: NCI-H23 lung
[31] = tested on: NCI-H460 lung
[32] = tested on: NCI-H522 lung
[33] = tested on: NCI/ADR-RES ovarian
[34] = tested on: OVCAR-3 ovarian
[35] = tested on: OVCAR-4 ovarian
[36] = tested on: OVCAR-5 ovarian
[37] = tested on: OVCAR-8 ovarian
[38] = tested on: PC-3 prostate
[39] = tested on: RPMI-8226 leukemia
[40] = tested on: RXF 393 renal
[41] = tested on: SF-268 CNS
[42] = tested on: SF-295 CNS
[43] = tested on: SF-539 CNS
[44] = tested on: SK-MEL-2 melanoma
[45] = tested on: SK-MEL-28 melanoma
[46] = tested on: SK-MEL-5 melanoma
[47] = tested on: SK-OV-3 ovarian
[48] = tested on: SN12C renal
[49] = tested on: SNB-19 CNS
[50] = tested on: SNB-75 CNS
[51] = tested on: SR leukemia
[52] = tested on: SW-620 colon
[53] = tested on: T-47D breast
[54] = tested on: TK-10 renal
[55] = tested on: U251 CNS
[56] = tested on: UACC-257 melanoma
[57] = tested on: UACC-62 melanoma
[58] = tested on: UO-31 renal

For `C=C1CCC2C3(C)COC(c4ccc(NC(C)=O)cc4)OC3CCC2(C)C1C/C=C1/C(=O)OCC1O` (stereo unspecified), the GI50 [1] was > 100 µM, the TGI [1] was > 100 µM and the GI50 [2] was > 100 µM. The TGI [2] was > 100 µM, the GI50 [3] was 5.03 µM and the TGI [3] was > 100 µM. The GI50 [4] was 7.63 µM, the TGI [4] was > 100 µM and the GI50 [5] was 1.86 µM. The TGI [5] was 9.35 µM, the GI50 [6] was 4.71 µM and the TGI [6] was > 100 µM. The GI50 [7] was 3.08 µM, the TGI [7] was > 100 µM and the GI50 [8] was 4.22 µM. For the same compound, the TGI [8] was > 100 µM, the GI50 [9] was > 100 µM and the TGI [9] was > 100 µM. For the same compound, the GI50 [10] was 2.71 µM, the TGI [10] was > 100 µM and the GI50 [11] was 7.75 µM. For the same compound, the TGI [11] was > 100 µM, the GI50 [12] was 4.7 µM and the TGI [12] was > 100 µM. For the same compound, the GI50 [13] was 9.58 µM, the TGI [13] was > 100 µM and the GI50 [14] was 2.93 µM. The TGI [14] was > 100 µM, the GI50 [15] was > 100 µM and the TGI [15] was > 100 µM. For the same compound, the GI50 [16] was 3.83 µM, the TGI [16] was > 100 µM and the GI50 [17] was > 100 µM. For the same compound, the TGI [17] was > 100 µM, the GI50 [18] was 5.35 µM and the TGI [18] was > 100 µM. The GI50 [19] was > 100 µM, the TGI [19] was > 100 µM and the GI50 [20] was 2.26 µM. For the same compound, the TGI [20] was > 100 µM, the GI50 [21] was 5.07 µM and the TGI [21] was > 100 µM. For the same compound, the GI50 [22] was 21 µM, the TGI [22] was > 100 µM and the GI50 [23] was > 100 µM. The TGI [23] was > 100 µM, the GI50 [24] was 5.96 µM and the TGI [24] was > 100 µM. For the same compound, the GI50 [25] was 4.58 µM, the TGI [25] was > 100 µM and the GI50 [26] was > 100 µM. For the same compound, the TGI [26] was > 100 µM, the GI50 [27] was 8.8 µM and the TGI [27] was > 100 µM. The GI50 [28] was 2.32 µM, the TGI [28] was 24.9 µM and the GI50 [29] was 26.3 µM. The TGI [29] was > 100 µM, the GI50 [30] was 5.13 µM and the TGI [30] was > 100 µM. For the same compound, the GI50 [31] was 4.71 µM, the TGI [31] was > 100 µM and the GI50 [32] was 4.53 µM. The TGI [32] was > 100 µM, the GI50 [33] was 7.37 µM and the TGI [33] was > 100 µM. For the same compound, the GI50 [34] was > 100 µM, the TGI [34] was > 100 µM and the GI50 [35] was 6.81 µM. For the same compound, the TGI [35] was > 100 µM, the GI50 [36] was > 100 µM and the TGI [36] was > 100 µM. For the same compound, the GI50 [37] was 7.76 µM, the TGI [37] was > 100 µM and the GI50 [38] was 3.39 µM. The TGI [38] was > 100 µM, the GI50 [39] was 0.985 µM and the TGI [39] was 8.32 µM. For the same compound, the GI50 [40] was 46.9 µM, the TGI [40] was > 100 µM and the GI50 [41] was > 100 µM. For the same compound, the TGI [41] was > 100 µM, the GI50 [42] was 1.55 µM and the TGI [42] was 6.75 µM. For the same compound, the GI50 [43] was > 100 µM, the TGI [43] was > 100 µM and the GI50 [44] was 8.12 µM. The TGI [44] was > 100 µM, the GI50 [45] was > 100 µM and the TGI [45] was > 100 µM. For the same compound, the GI50 [46] was 3.57 µM, the TGI [46] was > 100 µM and the GI50 [47] was > 100 µM. For the same compound, the TGI [47] was > 100 µM, the GI50 [48] was > 100 µM and the TGI [48] was > 100 µM. The GI50 [49] was > 100 µM, the TGI [49] was > 100 µM and the GI50 [50] was > 100 µM. The TGI [50] was > 100 µM, the GI50 [51] was 2.33 µM and the TGI [51] was 85.1 µM. The GI50 [52] was 64.3 µM, the TGI [52] was > 100 µM and the GI50 [53] was 2.53 µM. For the same compound, the TGI [53] was > 100 µM, the GI50 [54] was 6.25 µM and the TGI [54] was > 100 µM. The GI50 [55] was 79 µM, the TGI [55] was > 100 µM and the GI50 [56] was 6.26 µM. The TGI [56] was > 100 µM, the GI50 [57] was > 100 µM and the TGI [57] was > 100 µM. The GI50 [58] was 5.43 µM and the TGI [58] was > 100 µM.
